Like-named read-outs stand apart in the source and are kept apart here.
Key:
UTI89 biofilm = test: UTI89 type 1 dependent biofilm formation (inhibition/prevention) assay on PVC, crystal violet; type: cell-based, uropathogenic E. coli UTI89; details: Escherichia coli
Procedure: In yet other embodiments, activity of the compound may be measured using the ability of the compound to prevent or disrupt biofilm formation.
UTI89 biofilm was grown in LB+/− mannoside for 24 h at 22° C. in PVC plates and quantitated using crystal violet. UTI89 biofilm for confocal microscopy was grown in LB for 24 h at 22° C. on PVC coverslips. Mannoside was then added and biofilm was grown for an additional 16 h. Coverslips were then washed in PBS, fixed in 2% paraformaldehyde and stained with SYTO9 prior to confocal microscopy. For all animal experiments UTI89 or PBC-1 was grown 2×24 h statically in LB at 37° C. and inoculated at a dose of 1×10^7 bacteria in 50 μl. All mice used were female C3H/HeN (Jackson). For the pretreatment studies, bacteria were incubated with mannoside for 20 min prior to inoculation into the mouse. […] For CFU counts, bladders were harvested at 6 hpi and placed in 1 mL PBS. Bladders were then homogenized, diluted and plated on LB. After growth at 37° C. overnight, bacterial counts were determined. LacZ staining and gentamicin protection assays were performed at 6 hpi. […] Water was changed daily with fresh antibiotics. Standard growth curve assays and hemagglutination assays were performed with TMP-SMZ. All statistical analysis performed was a two-tailed Mann-Whitney U test.
(§1) Biofilm assay. UTI89 was grown in LB broth in wells of PVC microtiter plates at 23° C. in the presence of individual mannosides at varying concentrations. After 48 h of growth, wells were rinsed with water and stained with crystal violet for quantification as described. For biofilm disruption activity in PVC plates, UTI89 was grown in LB broth in wells of PVC microtiter plates at 23° C. After 24 h of growth, mannoside was added and biofilms were grown for an additional 16 h. Wells were then rinsed, stained with crystal violet and quantified. For biofilm disruption activity on PVC coverslips, UTI89 was grown in LB broth in 50 mL conicals containing PBC coverslips at 23° C. After 24 h of growth, 0.3 μM ZFH-2056 was added and biofilm was grown for an additional 16 h.
UTI89 biofilm was grown in LB+/− mannoside for 24 h at 22° C. in PVC plates and quantified using crystal violet. UTI89 biofilm for confocal microscopy was grown in LB for 24 h at 22° C. on PVC coverslips followed by mannoside treatment for 16 h. For all animal experiments UTI89 or PBC-1 was grown 2×24 h statically in LB at 37° C. and inoculated at a dose of 1×10^7 bacteria in 50 μl. All mice used were female C3H/HeN (Harlan). For the chronic UTI model, mice were infected for 2 weeks prior to treatment with mannoside. […] For oral dosing, 100 μl of 10 mg/ml (50 mg/kg) or 20 mg/ml (100 mg/kg) mannoside in 8% DMSO was inoculated with a gavage needle 30 min prior to inoculation of bacteria. […] For CFU counts, bladders were harvested at 6 hpi and placed in 1 mL PBS. Bladders were then homogenized, diluted and plated on LB. After growth at 37° C. overnight, bacterial counts were determined. LacZ staining and gentamicin protection assays were performed at 6 hpi. […] Water was changed daily with fresh antibiotics. Standard growth curve and hemagglutination assays were performed. All statistical analysis performed was a two-tailed Mann-Whitney U test. […] Compounds 7-10 were prepared using slightly modified procedures. All compounds are >95% pure as determined by HPLC/MS and ^1H NMR.
as §1, with “UTI89” for “Biofilm assay. UTI89”, “For biofilm disruption activity on PVC coverslips, UTI89 was grown in LB broth in 50 mL conicals containing PBC coverslips at 23° C. After 24 h of growth, 0.3 μM ZFH-2056 was added and biofilm was grown for an additional 16 h.” left out

FimH [1] = molecular target: FimH (Escherichia coli, UniProt Q1R2J4); details: for HAI Titer EC>50: Table 21;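 as to all read-outs here: hemagglutination inhibition of guinea pig erythrocytes agglutinated by type 1 piliated uropathogenic E. coli via FimH mannose binding, quantified through serial dilutions of compound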
Procedure: In some embodiments, activity of the compound is measured using hemmagglutination titer of guinea pig red blood cells. Hemagglutination of guinea pig red blood cells by type1 piliated UPEC is dependent upon FimH mannose binding ability and serial dilutions allow a quantitative analysis.
Biological activity against FimH was evaluated using a guinea pig red blood cell-based hemagglutination (HA) assay (ref) in which the concentration of the mannoside on reducing agglutination by 50% was used as the primary endpoint (50% HA titer).
Hemagglutination of guinea pig red blood cells by type1 piliated UPEC is dependent upon FimH mannose binding ability. Serial dilutions allow a quantitative analysis using this assay.
Hemagglutination assays for mannose-sensitive agglutination of guinea pig red blood cells were performed as previously described.

FimH [2] = molecular target: FimH (Escherichia coli, UniProt P08191); test: biochemical; type: binding, E. coli; details: Table 13; competition with FAM mannoside 20; read-out: FP Binding EC50
Source text: In order to more accurately determine the relative contributions of both binding affinity to FimH versus other compound properties to the potency seen in the cellular HA titer assay, a high-throughput fluorescence polarization (FP) (or anisotropy) competitive binding assay was developed using a fluorescent-labeled mannoside ligand shown in Scheme 4.
A fluorescent polarization assay was developed and miniaturized to monitor the direct binding of a synthesized fluorescently labeled butyl mannose derivative to the FimH receptor as well as competitive displacement by other synthetic mannosides. This fluorescent polarization assay provides a rapid method for monitoring improvements to receptor affinity during the synthetic process, as well as providing Kd binding affinity measurements.

[3] = read-out: Biofilm IC50 (approximated)
[4] = read-out: Biofilm IC50 [calculated]
[5] = read-out: Biofilm Prevention IC50

## O=C1NC2C=CC(OC3OC(CO)C(O)C(O)C3O)=CC2O1 (stereo not shown) [Compound 1ZFH256, 6-[3,4,5-trihydroxy-6-(hydroxymethyl)tetrahydropyran-2-yl]oxy-3a,7a-dihydro-3H-1,3-benzoxazol-2-one]
UTI89 biofilm; [3]
  IC50: 10 to 25 µM
UTI89 biofilm; [4]
  IC50: ~15 µM
FimH [1]
  HAI Titer EC>90: 4.000 µM

## CNC(=O)c1cccc(-c2ccc(OC3O[C@@H](CO)[C@@H](O)[C@H](O)[C@H]3O)c(Cl)c2)c1 (stereo partly drawn) [Compound 4ZFH170, 3-[3-chloro-4-[(3R,4S,5S,6S)-3,4,5-trihydroxy-6-(hydroxymethyl)tetrahydropyran-2-yl]oxy-phenyl]-N-methyl-benzamide]
UTI89 biofilm; [5]
  IC50: 0.523 µM
FimH [1]
  HAI Titer EC>90: 0.125 µM
FimH [1]; ZFH/JWJ codes
  HAI Titer EC>50: 0.125 µM
FimH [1]; Table 22, ZFH/JWJ codes
  HAI Titer EC>90: 0.125 µM

## CCc1ccc(OC2OC(CO)C(O)C(O)C2O)cc1 (stereo not shown) [Compound 1ZFH178, 2-(4-ethylphenoxy)-6-(hydroxymethyl)tetrahydropyran-3,4,5-triol]
UTI89 biofilm; [3]
  IC50: 10 to 100 µM
UTI89 biofilm; [4]
  IC50: ~90 µM
FimH [1]
  HAI Titer EC>90: 23.000 µM

## COC(=O)c1cccc(-c2ccc(OC3O[C@@H](CO)[C@@H](O)[C@H](O)[C@H]3O)c(C)c2)c1 (stereo partly drawn) [Compound 4ZFH224, methyl 3-[3-methyl-4-[(3R,4S,5S,6S)-3,4,5-trihydroxy-6-(hydroxymethyl)tetrahydropyran-2-yl]oxy-phenyl]benzoate]
UTI89 biofilm; [5]
  IC50: 0.333 µM
FimH [1]
  HAI Titer EC>90: 0.125 µM
FimH [1]; ZFH/JWJ codes
  HAI Titer EC>50: 0.125 µM
FimH [1]; Table 22, ZFH/JWJ codes
  HAI Titer EC>90: 0.125 µM

## Cc1cc(=O)oc2cc(OC3OC(CO)C(O)C(O)C3O)ccc12 [4-methylumbellferyl-α-D-mannoside, reference compound]
UTI89 biofilm; [4]
  IC50: 1.7 µM

## COC(=O)c1cccc(-c2ccc(OC3O[C@@H](CO)[C@@H](O)[C@H](O)[C@H]3O)c(OC)c2)c1 (stereo partly drawn) [Compound 4ZFH228, methyl 3-[3-methoxy-4-[(3R,4S,5S,6S)-3,4,5-trihydroxy-6-(hydroxymethyl)tetrahydropyran-2-yl]oxy-phenyl]benzoate]
UTI89 biofilm; [5]
  IC50: 0.886 µM
FimH [1]
  HAI Titer EC>90: 0.188 µM
FimH [1]; ZFH/JWJ codes
  HAI Titer EC>50: 0.188 µM
FimH [1]; Table 22, ZFH/JWJ codes
  HAI Titer EC>90: 0.188 µM

## CCCCOC1OC(CO)C(O)C(O)C1O (stereo not shown) [Compound 1ZFH84]
UTI89 biofilm; [5]
  IC50: ~500 µM
FimH [1]; ZFH/JWJ codes
  HAI Titer EC>50: 125.000 µM

## CCCCO[C@H]1O[C@H](CO)[C@@H](O)[C@H](O)[C@@H]1O [Butylman]
FimH [2]
  EC50: 0.245 µM

## CCCc1ccc(OC2OC(CO)C(O)C(O)C2O)cc1 (stereo not shown) [Compound 1ZFH179, 2-(hydroxymethyl)-6-(4-propylphenoxy)tetrahydropyran-3,4,5-triol]
UTI89 biofilm; [3]
  IC50: 10 to 100 µM
UTI89 biofilm; [4]
  IC50: ~55 µM
FimH [1]
  HAI Titer EC>90: 15.000 µM

## COC(=O)Cc1ccc(OC2OC(CO)C(O)C(O)C2O)cc1 (stereo not shown) [Compound 1ZFH171, methyl 2-[4-[3,4,5-trihydroxy-6-(hydroxymethyl)tetrahydropyran-2-yl]oxyphenyl]acetate]
UTI89 biofilm; [3]
  IC50: ~100 µM
FimH [1]
  HAI Titer EC>90: 30.000 µM

## COC(=O)c1cccc(-c2ccc(O[C@H]3O[C@H](CO)[C@@H](O)[C@H](O)[C@@H]3O)c(OC)c2)c1 [Compound 4e, Methyl 3-[3-methoxy-4-[(2R,3S,4S,5S,6R)-3,4,5-trihydroxy-6-(hydroxymethyl)tetrahydropyran-2-yl]oxy-phenyl]benzoate]
UTI89 biofilm; [5]
  IC50: 0.89 µM
FimH [1]; Table 17, Examples 30-36 numbering
  HAI Titer EC>90: 0.19 µM

## COC(=O)c1sc(-c2ccc(OC3OC(CO)C(O)C(O)C3O)cc2)cc1NC(N)=O (stereo not shown) [Compound 4ZFH52]
UTI89 biofilm; [5]
  IC50: 0.181 µM
FimH [1]; ZFH/JWJ codes
  HAI Titer EC>50: 0.016 µM

## O=C1Cc2cc(OC3OC(CO)C(O)C(O)C3O)ccc2O1 (stereo not shown) [Compound 1ZFH231, 5-[3,4,5-trihydroxy-6-(hydroxymethyl)tetrahydropyran-2-yl]oxy-3H-benzofuran-2-one]
UTI89 biofilm; [3]
  IC50: ~25 µM
FimH [1]
  HAI Titer EC>90: 8.000 µM

## COC(=O)c1cccc(-c2ccc(OC3O[C@@H](CO)[C@@H](O)[C@H](O)[C@H]3O)c(F)c2)c1 (stereo partly drawn) [Compound 4ZFH220, methyl 3-[3-fluoro-4-[(3R,4S,5S,6S)-3,4,5-trihydroxy-6-(hydroxymethyl)tetrahydropyran-2-yl]oxy-phenyl]benzoate]
FimH [1]
  HAI Titer EC>90: 0.750 µM
FimH [1]; ZFH/JWJ codes
  HAI Titer EC>50: 0.750 µM
FimH [1]; Table 22, ZFH/JWJ codes
  HAI Titer EC>90: 0.750 µM

## COC(=O)c1cccc(OC2OC(CO)C(O)C(O)C2O)c1 (stereo not shown) [Compound 3j]
FimH [1]; carboxylic acid relative to matched pair methyl ester 3j
  fold loss of HA potency: 10 fold

## NCCNC(=O)c1cccc(-c2ccc(OC3OC(CO)C(O)C(O)C3O)cc2)c1 (stereo not shown) [Compound 3ZFH280, N-(2-aminoethyl)-3-[4-[3,4,5-trihydroxy-6-(hydroxymethyl)tetrahydropyran-2-yl]oxyphenyl]benzamide]
FimH [1]
  HAI Titer EC>90: 3.000 µM

## O=C(Nc1ccncc1)c1cccc(-c2ccc(OC3OC(CO)C(O)C(O)C3O)cc2)c1 (stereo not shown) [Compound 3ZFH256, N-(4-pyridyl)-3-[4-[3,4,5-trihydroxy-6-(hydroxymethyl)tetrahydropyran-2-yl]oxyphenyl]benzamide]
FimH [1]
  HAI Titer EC>90: 0.25 µM

## O=c1[nH]ccc2ccc(-c3ccc(OC4OC(CO)C(O)C(O)C4O)cc3)cc12 (stereo not shown) [Compound 5ZFH63]
FimH [1]; ZFH/JWJ codes
  HAI Titer EC>50: 0.100 µM

## COC(=O)c1cccc(OC2OC(CO)C(O)C(O)C2O)c1 (stereo not shown) [Compound 1ZFH101, methyl 3-[3,4,5-trihydroxy-6-(hydroxymethyl)tetrahydropyran-2-yl]oxybenzoate]
FimH [1]
  HAI Titer EC>90: 6.000 µM

## OCc1cccc(-c2ccc(OC3OC(CO)C(O)C(O)C3O)cc2)c1 (stereo not shown) [Compound 3ZFH18, 2-(hydroxymethyl)-6-[4-[3-(hydroxymethyl)phenyl]phenoxy]tetrahydropyran-3,4,5-triol]
FimH [1]
  HAI Titer EC>90: 3.000 µM

## CC(=O)Nc1ccc(-c2ccc(OC3OC(CO)C(O)C(O)C3O)cc2)cc1 (stereo not shown) [Compound 4ZFH277]
FimH [1]; ZFH/JWJ codes
  HAI Titer EC>50: 1.000 µM

## O=C(c1cccc(-c2ccc(OC3OC(CO)C(O)C(O)C3O)cc2)c1)N1CCNCC1 (stereo not shown) [Compound 3ZFH284, piperazin-1-yl-[3-[4-[3,4,5-trihydroxy-6-(hydroxymethyl)tetrahydropyran-2-yl]oxyphenyl]phenyl]methanone]
FimH [1]
  HAI Titer EC>90: 4.0000 µM

## O=C(NCCCCOC1OC(CO)C(O)C(O)C1O)c1ccc(C(=O)O)c(-c2c3ccc(=O)cc-3oc3cc(O)ccc23)c1 (stereo not shown) [Compound 1ZFH134A, 2-(3-hydroxy-6-oxo-xanthen-9-yl)-4-[4-[3,4,5-trihydroxy-6-(hydroxymethyl)tetrahydropyran-2-yl]oxybutylcarbamoyl]benzoic acid]
FimH [1]
  HAI Titer EC>90: 125.000 µM

## OCC1OC(Oc2ccc3ccccc3c2)C(O)C(O)C1O (stereo not shown) [Compound 1ZFH185, 2-(hydroxymethyl)-6-(2-naphthyloxy)tetrahydropyran-3,4,5-triol]
FimH [1]
  HAI Titer EC>90: 6.000 µM

## OCC1OC(Oc2ccc(-c3cccc4cnccc34)cc2)C(O)C(O)C1O (stereo not shown) [Compound 5ZFH61]
FimH [1]; ZFH/JWJ codes
  HAI Titer EC>50: 0.250 µM

## COC(=O)c1sc(-c2ccc(OC3OC(CO)C(O)C(O)C3O)cc2)cc1NC(N)=O (stereo not shown) [Compound 4ZFH52-JJ, methyl 5-[4-[3,4,5-trihydroxy-6-(hydroxymethyl)tetrahydropyran-2-yl]oxyphenyl]-3-ureido-thiophene-2-carboxylate]
FimH [1]
  HAI Titer EC>90: 0.016 µM

## CNC(=O)c1cccc(-c2ccc([C@H](O)C3OC(CO)C(O)C(O)C3O)cc2)c1 (stereo partly shown) [Compound 5ZFH48]
FimH [1]; ZFH/JWJ codes
  HAI Titer EC>50: 24.000 µM
